Reference: BindingDB's records for doi:10.1021/jm00037a025 (University of Oxford, 1994)

Biological target: D(2) dopamine receptor (Rattus norvegicus, UniProt P61169)
Assay: Displacement of spiperone from dopamine receptor D2 of rat brain membrane

Chain of D(2) dopamine receptor (P61169 whole entry): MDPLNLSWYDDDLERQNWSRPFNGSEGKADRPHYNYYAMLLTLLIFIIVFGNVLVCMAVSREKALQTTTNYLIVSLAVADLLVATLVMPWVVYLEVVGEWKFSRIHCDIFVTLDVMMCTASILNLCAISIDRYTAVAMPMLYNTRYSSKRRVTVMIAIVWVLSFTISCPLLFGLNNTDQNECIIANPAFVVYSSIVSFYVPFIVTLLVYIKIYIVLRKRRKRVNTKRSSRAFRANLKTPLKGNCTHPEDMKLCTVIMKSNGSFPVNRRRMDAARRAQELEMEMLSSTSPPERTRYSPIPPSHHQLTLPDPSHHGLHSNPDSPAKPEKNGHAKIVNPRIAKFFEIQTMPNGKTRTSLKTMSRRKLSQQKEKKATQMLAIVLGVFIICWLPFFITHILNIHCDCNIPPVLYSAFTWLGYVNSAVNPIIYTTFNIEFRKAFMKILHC

| Structure (SMILES) | IC50 |
| --- | --- |
| CN1CCC[C@@H](c2cccc(O)c2)C1 | 0.29 µM |
| CCc1ccc(N2CCC[C@H](c3cccc(O)c3)C2)cc1 | 1.23 µM |
| CCc1ccc(N2CCC[C@@H](c3cccc(O)c3)C2)cc1 | 0.0437 µM |
| CCCCN1CCC[C@H](c2cccc(O)c2)C1 | 0.43 µM |
| CN1CCC[C@H](c2cccc(O)c2)C1 | 0.61 µM |
